Laboratory results published in paper PMC6600542 (Molecules, 2019).
Values joined by “and” are separate entries in the source; they are usually repeats but may differ in a detail not shown here. Identical values can stand only once.

Columns and labels:
[1] = tested on: human plasma deficient of FVII; assay: APTT clotting assay, FVII-deficient plasma; format: biochemical
Experimental: (§1) For the PT assay, thromboplastin-D was reconstituted according to the manufacturer’s directions and warmed to 37 °C. […] After incubation for 4 min at 37 °C, clotting was initiated by adding 100 μL of prewarmed 25 mM CaCl2 and the time to clotting was noted. […] To determine the in vitro effect on the APTT of deficient human plasmas, the APTT assay was repeated, using human plasmas deficient of factor VII (FVII), factor IX (FIX), FXI, or factor XII (FXII). […] The positive control used in APTT and PT assays was rivaroxaban, a clinically used FXa inhibitor. Under the conditions reported, rivaroxaban doubled the APTT and PT at concentrations of 0.123 ± 0.003 µM and 0.193 ± 0.043 µM, respectively.

[2] = tested on: human plasma deficient of FXII; assay: APTT clotting assay, FXII-deficient plasma; format: biochemical
Experimental: as §1

[3] = tested on: normal human plasma; assay: PT clotting assay, normal human plasma; format: biochemical; conditions: for concentration to double the PT: normal human plasma (text)
Experimental: as §1

[4] = molecular target: T1, FXIa (Homo sapiens, UniProt P03951); assay: FXIa chromogenic substrate hydrolysis assay; format: biochemical
T1 construct: purchased Haematologic Technologies, Inc; host or cells: plasma
Experimental: (§2) Direct inhibition of the human coagulation transglutaminase FXIIIa was also studied using a fluorescence-based transglutamination assay as reported in the literature.
(§3) After 10 min incubation, 5 µL FXIa substrate (6.9 mM stock concentration) was rapidly added and the residual FXIa activity was measured from the initial rate of increase in absorbance at 405 nm. Assays were performed in similar fashion with trypsin and chymotrypsin. Stock concentrations used were 18.9 µg/mL (trypsin) and 22.7 mM (S-2222) for bovine trypsin assay (final volume was 200 µL) and 2 µg/mL (chymotrypsin) and 16.2 mM (N-Succinyl-Ala-Ala-Pro-Phe-p-nitroanilide) for bovine chymotrypsin assay (final volume was 200 µL). The buffer used for FXIa, trypsin, chymotrypsin assays was 50 mM Tris-HCl buffer, pH 7.4, containing 150 mM NaCl, 2.5 mM CaCl2, 0.1% PEG8000, and 0.02% Tween80. Neutrophil elastase inhibition assay was performed in a 96-well plate with a final volume of 100 µl with 0.125 M 4-(2-hydroxyethyl)-1-piperazineethanesulfonic acid (HEPES) buffer, pH 7.4 containing 0.125% Triton-X 100, as reported earlier. […] After incubation, 3 µL neutrophil elastase substrate (S-1384; 25 mM stock conc.) was rapidly added and the residual enzyme activity measured from the initial rate of increase in the absorbance at 405 nm.

[5] = molecular target: human plasmin (Homo sapiens, UniProt P00747); assay: Plasmin chromogenic substrate hydrolysis assay; format: biochemical; conditions: Spectrozyme PL, pH 7.4, 37 °C
Experimental: Direct inhibition of human FXa and α-thrombin of the common coagulation pathway and human plasmin of the fibrinolysis pathway were measured using the corresponding chromogenic substrate hydrolysis assays at 37 °C and pH 7.4, as reported earlier using the 96-microplate platform. […] After 10 min incubation, 5 µL Spectrozyme FXa (5 mM stock conc.) was rapidly added and the residual activity of FXa was measured from the initial rate of increase in absorbance at 405 nm. […] The concentration vs effect curve was constructed using logistic Equation (1) from which the potency (IC50) and efficacy (ΔY) of inhibition were also obtained.
For thrombin and plasmin, the assays were performed using substrates appropriate for each enzyme (Spectrozyme TH for thrombin and Spectrozyme PL for plasmin) under conditions closest to the physiological condition. The KM of the substrate for its enzyme was used to identify the concentration of the substrate to be used for inhibition studies. […] After 10 min incubation, 5 µL Spectrozyme TH (1.0 mM stock conc.) was rapidly added and the residual activity of thrombin was measured from the initial rate of increase in absorbance at 405 nm. […] After 10 min incubation, 5 µL Spectrozyme PL (1.0 mM stock conc.) was rapidly added and the residual activity of plasmin was measured from the initial rate of increase in absorbance at 405 nm. […] Buffer for assays was 20–50 mM Tris-HCl buffer, pH 7.4, containing 100–150 mM NaCl, 2.5 mM CaCl2, 0.1% PEG8000, and 0.02% Tween80. All assays were performed three times.

[6] = molecular target: T2, human neutrophil elastase (Homo sapiens, UniProt P08246); assay: Neutrophil elastase chromogenic substrate hydrolysis assay; format: biochemical; conditions: pH 7.4
T2 construct: purchased Elastin Products Company
T2 sequence (P08246 30-247 limits assumed): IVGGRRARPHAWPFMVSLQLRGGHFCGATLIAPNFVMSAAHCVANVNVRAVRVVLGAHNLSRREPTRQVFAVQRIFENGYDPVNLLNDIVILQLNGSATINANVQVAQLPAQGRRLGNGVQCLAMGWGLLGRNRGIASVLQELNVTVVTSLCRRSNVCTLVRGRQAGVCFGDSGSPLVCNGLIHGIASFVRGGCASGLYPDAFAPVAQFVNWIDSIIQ
Experimental: as §2, §3

[7] = molecular target: T3, bovine trypsin (Bos taurus, UniProt P00760); assay: Trypsin chromogenic substrate hydrolysis assay; format: biochemical; conditions: pH 7.4
T3 construct: purchased Millipore-Sigma
Experimental: as §2, §3

[8] = molecular target: T4, bovine chymotrypsin (Bos taurus, UniProt P00766); assay: Chymotrypsin chromogenic substrate hydrolysis assay; format: biochemical; conditions: pH 7.4
T4 construct: purchased Millipore-Sigma
Experimental: as §2, §3

[9] = tested on: clotting times; conditions: cited from earlier work
[10] = cited from earlier work
[11] = parenteral administration, patients

Chain of human plasmin (P00747 581-810 limits assumed): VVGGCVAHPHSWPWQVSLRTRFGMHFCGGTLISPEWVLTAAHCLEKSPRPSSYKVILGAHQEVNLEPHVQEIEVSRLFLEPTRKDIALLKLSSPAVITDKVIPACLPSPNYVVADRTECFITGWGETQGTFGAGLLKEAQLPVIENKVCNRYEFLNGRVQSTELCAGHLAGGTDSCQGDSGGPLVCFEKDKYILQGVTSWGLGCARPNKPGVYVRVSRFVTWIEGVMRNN
Chain of human plasmin (P00747 97-580 partner limits assumed): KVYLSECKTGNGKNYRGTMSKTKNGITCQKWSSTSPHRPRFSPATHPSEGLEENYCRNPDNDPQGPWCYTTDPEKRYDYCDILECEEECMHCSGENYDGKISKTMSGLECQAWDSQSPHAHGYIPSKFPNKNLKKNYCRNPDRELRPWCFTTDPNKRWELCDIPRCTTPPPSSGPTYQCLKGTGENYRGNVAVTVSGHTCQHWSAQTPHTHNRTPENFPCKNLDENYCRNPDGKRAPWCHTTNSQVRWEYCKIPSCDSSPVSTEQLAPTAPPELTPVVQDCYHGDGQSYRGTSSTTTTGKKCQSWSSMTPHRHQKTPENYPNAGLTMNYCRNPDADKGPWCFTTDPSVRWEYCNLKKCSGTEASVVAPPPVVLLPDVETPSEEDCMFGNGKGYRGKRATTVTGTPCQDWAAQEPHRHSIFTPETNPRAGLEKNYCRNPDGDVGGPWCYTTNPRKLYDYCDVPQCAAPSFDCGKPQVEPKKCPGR
T3 sequence (P00760 24-246): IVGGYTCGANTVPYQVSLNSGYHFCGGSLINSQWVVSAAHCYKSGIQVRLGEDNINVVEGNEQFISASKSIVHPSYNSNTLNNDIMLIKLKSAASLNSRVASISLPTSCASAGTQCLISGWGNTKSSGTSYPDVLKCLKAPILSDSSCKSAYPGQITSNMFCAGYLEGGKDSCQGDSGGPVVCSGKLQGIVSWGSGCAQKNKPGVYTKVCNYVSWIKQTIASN
T1 sequence (P03951 388-625 limits assumed): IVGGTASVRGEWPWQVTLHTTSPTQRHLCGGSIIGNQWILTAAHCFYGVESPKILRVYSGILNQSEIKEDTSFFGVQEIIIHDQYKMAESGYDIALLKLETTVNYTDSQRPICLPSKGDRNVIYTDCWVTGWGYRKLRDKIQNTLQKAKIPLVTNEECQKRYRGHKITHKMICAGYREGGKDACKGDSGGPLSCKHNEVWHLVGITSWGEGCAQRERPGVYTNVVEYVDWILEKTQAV
T1 sequence (P03951 19-387 partner limits assumed): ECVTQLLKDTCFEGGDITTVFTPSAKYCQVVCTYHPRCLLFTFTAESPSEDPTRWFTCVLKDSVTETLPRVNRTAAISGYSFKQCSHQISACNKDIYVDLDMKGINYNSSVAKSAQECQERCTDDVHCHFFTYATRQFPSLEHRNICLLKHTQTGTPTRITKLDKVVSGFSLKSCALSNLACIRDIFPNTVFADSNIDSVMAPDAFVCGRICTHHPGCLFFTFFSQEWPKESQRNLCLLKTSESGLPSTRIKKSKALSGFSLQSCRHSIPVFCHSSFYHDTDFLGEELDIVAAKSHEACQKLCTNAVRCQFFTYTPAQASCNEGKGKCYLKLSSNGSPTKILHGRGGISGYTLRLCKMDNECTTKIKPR

## N=C(N)c1ccc(OCCCCCOc2ccc(C(=N)N)cc2)cc1 [pentamidine isethionate, 4,4′-(pentane-1,5-diylbis(oxy))-dibenzimidamide]
[1]
  APTTEC2×, concentration to double clotting time: 26.71 ± 0.50 µm
[2]
  APTTEC2×, concentration to double clotting time: 27.05 ± 6.05 µm
[3]; PT assay, normal human plasma
  PTEC2×, concentration to double clotting time: 45.70 ± 0.85 µm
[3]
  concentration to double the PT: 45.7 µM and 45.70 ± 0.85 µM
[3]; listed as pentamidine
  concentration to double the PT: lower than 50 µM
[4]; at 100 µM (highest concentration tested)
  inhibition at 100 µM: < 40%
[4]; pH 7.4
  IC50: > 100 µM
[5]
  HS: 1.1 ± 0.1
  IC50: ~8.4 µM and 8.4 µM
  ∆Y (efficacy): 98.0 ± 3.3%
[5]; listed as pentamidine
  ∆Y (efficacy): ~ 100%
[6]
  IC50: > 100 µM
[7]
  HS: 1.0 ± 0.2
  IC50: 4.9 ± 0.8 µM
  ∆Y (efficacy): 116.8 ± 7.4%
[8]
  IC50: > 1750 µM
[9]
  concentration that prolongs clotting times: greater than 8.4 µM
[10]; [11]
  anemia, incidence: 1%
  leukopenia, incidence: 10%
  thrombocytopenia, incidence: 3%
[10]; treated patients
  blood clot formation, share of treated patients: less than 1%
